The values that follow come from the supplement of paper PMC10307832.

What all share (experiment): relative viability (nuclei count vs DMSO), 5 days (fraction); higher = more cells survive
Compound in the test “Venetoclax + Linsitinib”: CC1(C)CCC(CN2CCN(c3ccc(C(=O)NS(=O)(=O)c4ccc(NCC5CCOCC5)c([N+](=O)[O-])c4)c(Oc4cnc5[nH]ccc5c4)c3)CC2)=C(c2ccc(Cl)cc2)C1 [Venetoclax] + C[C@]1(O)C[C@@H](c2nc(-c3ccc4ccc(-c5ccccc5)nc4c3)c3c(N)nccn32)C1 [Linsitinib] (partner 1 µM)
In a few lines:
(§1)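 Relative viability is defined as nuclei in treated wells over nuclei in vehicle wells. Duplicate plates were run and medians reported. Lung cancer cell lines in 1536-well plates were dosed by pin tool one day after seeding, with one drug or with a fixed anchor-drug dose plus five library-drug doses (not always all listed) in √10 steps, and nuclei were counted after 5 days.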

Compound in the test “Venetoclax + Olaparib”: CC1(C)CCC(CN2CCN(c3ccc(C(=O)NS(=O)(=O)c4ccc(NCC5CCOCC5)c([N+](=O)[O-])c4)c(Oc4cnc5[nH]ccc5c4)c3)CC2)=C(c2ccc(Cl)cc2)C1 [Venetoclax] + O=C(c1cc(Cc2n[nH]c(=O)c3ccccc23)ccc1F)N1CCN(C(=O)C2CC2)CC1 [Olaparib] (partner 8 µM)
In a few lines:
as §1

Compound in the test “Selumetinib + Trametinib”: Cn1cnc2c(F)c(Nc3ccc(Br)cc3Cl)c(C(=O)NOCCO)cc21 [Selumetinib] + CC(=O)Nc1cccc(-n2c(=O)n(C3CC3)c(=O)c3c(Nc4ccc(I)cc4F)n(C)c(=O)c(C)c32)c1 [Trametinib] (partner 0.02 µM)
In a few lines: as §1

Compound in the test “Selumetinib + Phenformin”: Cn1cnc2c(F)c(Nc3ccc(Br)cc3Cl)c(C(=O)NOCCO)cc21 [Selumetinib] + N=C(N)NC(=N)NCCc1ccccc1 [Phenformin] (partner 250 µM)
In a few lines:
as §1

Take UMC-11: the relative viability amounted to 1 with Venetoclax + Linsitinib (first compound 0.01 µM); 1.01 with Venetoclax + Linsitinib (first compound 0.03162 µM); 0.912 with Venetoclax + Linsitinib (first compound 0.1 µM); 0.932 with Venetoclax + Linsitinib (first compound 0.3162 µM); 0.959 with Venetoclax + Linsitinib (first compound 1 µM); 0.401 with Venetoclax + Olaparib (first compound 0.01 µM). In addition, the relative viability with Venetoclax + Olaparib (first compound 0.03162 µM) was 0.322; with Venetoclax + Olaparib (first compound 0.1 µM), 0.303; with Venetoclax + Olaparib (first compound 0.3162 µM), 0.379; with Venetoclax + Olaparib (first compound 1 µM), 0.886; with Selumetinib + Trametinib (first compound 0.02 µM), 0.562; in the test with Selumetinib + Trametinib (first compound 0.06325 µM) it was 0.703. Moreover, the relative viability turned out to be 0.879 with Selumetinib + Trametinib (first compound 0.2 µM); 0.812 in the test with Selumetinib + Trametinib (first compound 0.6325 µM); 0.301 in the test with Selumetinib + Phenformin (first compound 0.02 µM); 0.284 with Selumetinib + Phenformin (first compound 0.06325 µM); 0.307 with Selumetinib + Phenformin (first compound 0.2 µM); 0.323 with Selumetinib + Phenformin (first compound 0.6325 µM).
